Test results taken from patent US10544147B2, “Purine inhibitors of human phosphatidylinositol 3-kinase delta” (MERCK SHARP & DOHME CORP., priority 2016, dated 2020).

Experiments:
PI3Kdelta = PI3Kdelta (Homo sapiens (Human), UniProt O00329); test: HTRF PI3K biochemical assay, delta isoform; settings: 0.3 nM enzyme, 100 uM ATP, 50 uM PIP2; form screened (neutral or TFA salt)
PI3Kalpha = PI3Kalpha (Homo sapiens (Human), UniProt P42336); test: HTRF PI3K biochemical assay, alpha isoform (selectivity versus delta); settings: ratio PI3K-alpha IC50 value/PI3K-delta IC50 value
PI3Kalpha, sequence (P42336 whole entry, canonical isoform): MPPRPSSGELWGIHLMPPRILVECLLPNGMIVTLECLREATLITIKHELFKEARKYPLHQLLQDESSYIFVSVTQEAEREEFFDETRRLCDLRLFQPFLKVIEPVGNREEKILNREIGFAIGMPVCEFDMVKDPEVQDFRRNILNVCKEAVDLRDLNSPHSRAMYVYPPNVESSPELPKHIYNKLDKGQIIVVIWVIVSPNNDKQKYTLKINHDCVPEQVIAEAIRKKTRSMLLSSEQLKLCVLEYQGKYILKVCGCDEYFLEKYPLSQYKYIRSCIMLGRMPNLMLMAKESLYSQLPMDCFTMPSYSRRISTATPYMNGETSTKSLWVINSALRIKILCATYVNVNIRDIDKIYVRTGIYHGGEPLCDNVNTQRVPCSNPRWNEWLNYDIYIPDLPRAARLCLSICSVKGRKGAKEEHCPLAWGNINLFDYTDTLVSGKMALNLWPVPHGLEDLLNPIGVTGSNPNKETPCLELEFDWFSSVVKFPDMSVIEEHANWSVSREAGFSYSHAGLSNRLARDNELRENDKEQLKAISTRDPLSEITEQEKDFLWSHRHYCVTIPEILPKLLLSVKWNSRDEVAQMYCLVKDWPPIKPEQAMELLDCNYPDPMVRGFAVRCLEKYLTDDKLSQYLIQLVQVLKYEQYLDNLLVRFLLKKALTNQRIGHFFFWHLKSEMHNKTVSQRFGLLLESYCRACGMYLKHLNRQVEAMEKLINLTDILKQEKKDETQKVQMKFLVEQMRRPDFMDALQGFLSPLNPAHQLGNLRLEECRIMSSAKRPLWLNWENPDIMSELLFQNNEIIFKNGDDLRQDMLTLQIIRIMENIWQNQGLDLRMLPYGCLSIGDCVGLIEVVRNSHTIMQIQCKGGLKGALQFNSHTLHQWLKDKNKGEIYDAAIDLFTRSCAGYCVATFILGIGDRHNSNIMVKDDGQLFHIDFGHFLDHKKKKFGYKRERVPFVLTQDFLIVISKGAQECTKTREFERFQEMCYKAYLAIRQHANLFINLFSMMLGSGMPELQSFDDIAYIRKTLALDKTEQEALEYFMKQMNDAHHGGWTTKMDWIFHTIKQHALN
PI3Kalpha, sequence (P27986 whole entry partner, canonical isoform): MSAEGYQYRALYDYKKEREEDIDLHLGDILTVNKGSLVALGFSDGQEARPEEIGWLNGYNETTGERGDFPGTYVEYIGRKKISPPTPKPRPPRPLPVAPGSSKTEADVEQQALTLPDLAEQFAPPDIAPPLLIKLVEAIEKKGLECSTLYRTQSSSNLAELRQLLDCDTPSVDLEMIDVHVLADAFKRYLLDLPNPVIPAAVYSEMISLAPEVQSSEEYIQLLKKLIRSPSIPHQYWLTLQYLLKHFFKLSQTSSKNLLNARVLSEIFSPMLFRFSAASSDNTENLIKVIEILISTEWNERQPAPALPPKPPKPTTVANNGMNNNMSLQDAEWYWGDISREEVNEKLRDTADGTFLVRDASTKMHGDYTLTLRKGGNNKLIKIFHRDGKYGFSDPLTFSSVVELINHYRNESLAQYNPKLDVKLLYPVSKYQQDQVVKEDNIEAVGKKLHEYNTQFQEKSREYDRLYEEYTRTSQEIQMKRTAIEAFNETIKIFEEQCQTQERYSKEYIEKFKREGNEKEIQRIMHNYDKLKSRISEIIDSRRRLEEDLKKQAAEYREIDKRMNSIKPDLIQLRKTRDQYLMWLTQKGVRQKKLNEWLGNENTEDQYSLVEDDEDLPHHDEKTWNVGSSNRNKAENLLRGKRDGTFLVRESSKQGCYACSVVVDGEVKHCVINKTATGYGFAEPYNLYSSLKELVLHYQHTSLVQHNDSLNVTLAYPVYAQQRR

PI3Kdelta, sequence (O00329 whole entry, canonical isoform): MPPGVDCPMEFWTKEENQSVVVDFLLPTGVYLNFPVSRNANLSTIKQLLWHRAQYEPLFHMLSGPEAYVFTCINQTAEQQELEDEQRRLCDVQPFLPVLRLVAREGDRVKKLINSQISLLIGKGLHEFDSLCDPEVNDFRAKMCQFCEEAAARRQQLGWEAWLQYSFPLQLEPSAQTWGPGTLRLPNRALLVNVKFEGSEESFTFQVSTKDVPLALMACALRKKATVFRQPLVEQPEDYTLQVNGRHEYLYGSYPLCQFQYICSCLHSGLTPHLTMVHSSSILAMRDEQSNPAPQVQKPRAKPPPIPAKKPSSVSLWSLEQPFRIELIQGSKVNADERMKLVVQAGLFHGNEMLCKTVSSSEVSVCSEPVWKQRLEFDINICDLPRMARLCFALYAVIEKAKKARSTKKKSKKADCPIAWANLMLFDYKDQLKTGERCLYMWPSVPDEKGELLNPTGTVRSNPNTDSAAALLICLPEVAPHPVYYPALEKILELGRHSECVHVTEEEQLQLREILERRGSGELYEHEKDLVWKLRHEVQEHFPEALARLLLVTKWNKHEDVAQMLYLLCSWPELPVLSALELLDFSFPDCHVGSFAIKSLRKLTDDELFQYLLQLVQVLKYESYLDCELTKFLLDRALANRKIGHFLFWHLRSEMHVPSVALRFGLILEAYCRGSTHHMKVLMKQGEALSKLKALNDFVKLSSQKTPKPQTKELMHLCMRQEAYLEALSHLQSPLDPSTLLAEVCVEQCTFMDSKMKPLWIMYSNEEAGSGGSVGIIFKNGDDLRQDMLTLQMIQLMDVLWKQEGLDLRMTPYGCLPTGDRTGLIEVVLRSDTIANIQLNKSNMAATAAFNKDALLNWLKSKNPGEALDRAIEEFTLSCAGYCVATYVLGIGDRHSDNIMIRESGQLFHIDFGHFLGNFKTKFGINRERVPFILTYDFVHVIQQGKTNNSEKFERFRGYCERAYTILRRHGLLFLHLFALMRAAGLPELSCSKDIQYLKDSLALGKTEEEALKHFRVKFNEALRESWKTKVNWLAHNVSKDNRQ
PI3Kdelta, sequence (P27986 whole entry partner, canonical isoform): as the sequence (P27986 whole entry partner, canonical isoform) above

| SMILES | IC50 (PI3Kdelta) | Relative Selectivity versus PI3Kalpha (PI3Kalpha) |
| --- | --- | --- |
| CCn1c(-c2cnc(C)nc2)nc2c(-c3ccc4c(c3)C3(CCN(C(C)C)C3)C(=O)N4)ncnc21 (single isomer, unassigned) [Compound 3-36, (R or S)-5-(9-ethyl-8-(2-methylpyrimidin-5-yl)-9H-purin-6-yl)-1′-isopropylspiro[indoline-3,3′-pyrrolidin]-2-one] | 26 nM | >10 |
| CCn1c(-c2cnc(C)nc2)nc2c(-c3ccc4c(c3)C(Cc3ccccc3)OC(=O)N4)ncnc21 (single isomer, unassigned) [Compound 4-1, (R or S)-4-benzyl-6-[9-ethyl-8-(2-methylpyrimidin-5-yl)-9H-purin-6-yl]-1,4-dihydro-2H-3,1-benzoxazin-2-one] | 97 nM | 2 |
| CCn1c(-c2cnc(C)nc2)nc2c(-c3ccc4c(c3)C(Cc3ccccc3)OC(=O)N4)ncnc21 (single isomer, unassigned) [Compound 4-2, (R or S)-4-benzyl-6-[9-ethyl-8-(2-methylpyrimidin-5-yl)-9H-purin-6-yl]-1,4-dihydro-2H-3,1-benzoxazin-2-one] | 35 nM | >10 |
| CCn1c(-c2cnc(C)nc2)nc2c(-c3ccc4c(c3)C(C)(CC(C)C)OC(=O)N4)ncnc21 (single isomer, unassigned) [Compound 4-3, (R or S)-6-[9-ethyl-8-(2-methylpyrimidin-5-yl)-9H-purin-6-yl]-4-methyl-4-(2-methylpropyl)-1,4-dihydro-2H-3,1-benzoxazin-2-one] | 59 nM | 6 |
| CCn1c(-c2cnc(C)nc2)nc2c(-c3ccc4c(c3)C(C)(CC(C)C)OC(=O)N4)ncnc21 (single isomer, unassigned) [Compound 4-4, (R or S)-6-[9-ethyl-8-(2-methylpyrimidin-5-yl)-9H-purin-6-yl]-4-methyl-4-(2-methylpropyl)-1,4-dihydro-2H-3,1-benzoxazin-2-one] | 4 nM | >10 |
| CCn1c(-c2cnc(C)nc2)nc2c(-c3ccc4c(c3)C(C)(CC(C)C)NS4(=O)=O)ncnc21 (single isomer, unassigned) [Compound 4-5, (R or S)-9-ethyl-6-[3-methyl-3-(2-methylpropyl)-1,1-dioxido-2,3-dihydro-1,2-benzisothiazol-5-yl]-8-(2-methylpyrimidin-5-yl)-9H-purine] | 6 nM | >10 |
| CCn1c(-c2cnc(C)nc2)nc2c(-c3ccc4c(c3)C(C)(CC(C)C)NS4(=O)=O)ncnc21 (single isomer, unassigned) [Compound 4-6, (R or S)-9-ethyl-6-[3-methyl-3-(2-methylpropyl)-1,1-dioxido-2,3-dihydro-1,2-benzisothiazol-5-yl]-8-(2-methylpyrimidin-5-yl)-9H-purine] | 55 nM | >10 |
| CCn1c(-c2cnc(C)nc2)nc2c(-c3ccc4c(c3)C(C)(CC(C)C)NC4=O)ncnc21 (single isomer, unassigned) [Compound 4-7, (R or S)-5-[9-ethyl-8-(2-methylpyrimidin-5-yl)-9H-purin-6-yl]-3-methyl-3-(2-methylpropyl)-2,3-dihydro-1H-isoindol-1-one] | 7 nM | >10 |
| CCn1c(-c2cnc(C)nc2)nc2c(-c3ccc4c(c3)C(C)(CC(C)C)NC4=O)ncnc21 (single isomer, unassigned) [Compound 4-8, (R or S)-5-[9-ethyl-8-(2-methylpyrimidin-5-yl)-9H-purin-6-yl]-3-methyl-3-(2-methylpropyl)-2,3-dihydro-1H-isoindol-1-one] | 128 nM | >10 |
| CCn1c(-c2cnc(C)nc2)nc2c(-c3ccc4c(c3)C(Cc3ccccc3)NC4=O)ncnc21 (single isomer, unassigned) [Compound 4-9, (R or S)-3-benzyl-5-[9-ethyl-8-(2-methylpyrimidin-5-yl)-9H-purin-6-yl]-2,3-dihydro-1H-isoindol-1-one] | 22 nM | >10 |
| CCn1c(-c2cnc(C)nc2)nc2c(-c3ccc4c(c3)C(C)(Cc3ccccc3)N(C)C4=O)ncnc21 (single isomer, unassigned) [Compound 4-12, (R or S)-3-benzyl-5-[9-ethyl-8-(2-methylpyrimidin-5-yl)-9H-purin-6-yl]-2,3-dimethyl-2,3-dihydro-1H-isoindol-1-one] | 14 nM | >10 |

More lines, now with the values ahead:

| IC50 (PI3Kdelta) | Relative Selectivity versus PI3Kalpha (PI3Kalpha) | SMILES |
| --- | --- | --- |
| 14 nM | >10 | CCn1c(-c2cnc(C)nc2)nc2c(-c3ccc4oc(=O)n(C(C)c5ccccc5)c4c3)ncnc21 (single isomer, unassigned) [Compound 5-1, (R or S)-5-[9-ethyl-8-(2-methylpyrimidin-5-yl)-9H-purin-6-yl]-3-(1-phenylethyl)-1,3-benzoxazol-2(3H)-one] |
| 37 nM | >10 | CCn1c(-c2cnc(C)nc2)nc2c(-c3ccc4oc(=O)n(C(C)c5ccccc5)c4c3)ncnc21 (single isomer, unassigned) [Compound 5-2, (R or S)-5-[9-ethyl-8-(2-methylpyrimidin-5-yl)-9H-purin-6-yl]-3-(1-phenylethyl)-1,3-benzoxazol-2(3H)-one] |
| 42 nM | >10 | CCn1c(-c2cnc(C)nc2)nc2c(-c3ccc4oc(=O)n(C(C)C5CC5)c4c3)ncnc21 (single isomer, unassigned) [Compound 5-5, (R or S)-3-(1-cyclopropylethyl)-5-[9-ethyl-8-(2-methylpyrimidin-5-yl)-9H-purin-6-yl]-1,3-benzoxazol-2(3H)-one] |
| 5 nM | >10 | CCn1c(-c2cnc(C)nc2)nc2c(-c3ccc4oc(=O)n(C(C)C5CC5)c4c3)ncnc21 (single isomer, unassigned) [Compound 5-6, (R or S)-3-(1-cyclopropylethyl)-5-[9-ethyl-8-(2-methylpyrimidin-5-yl)-9H-purin-6-yl]-1,3-benzoxazol-2(3H)-one] |
| 3 nM | >10 | CCn1c(-c2cnc(C)nc2)nc2c(-c3ccc4[nH]c(=O)n(C(C)C5CC5)c4c3)ncnc21 (single isomer, unassigned) [Compound 5-7, (R or S)-1-(1-cyclopropylethyl)-6-[9-ethyl-8-(2-methylpyrimidin-5-yl)-9H-purin-6-yl]-1,3-dihydro-2H-benzimidazol-2-one] |
| 24 nM | >10 | CCn1c(-c2cnc(C)nc2)nc2c(-c3ccc4[nH]c(=O)n(C(C)C5CC5)c4c3)ncnc21 (single isomer, unassigned) [Compound 5-8, (R or S)-1-(1-cyclopropylethyl)-6-[9-ethyl-8-(2-methylpyrimidin-5-yl)-9H-purin-6-yl]-1,3-dihydro-2H-benzimidazol-2-one] |
| 151 nM | >10 | CCn1c(-c2cnc(C)nc2)nc2c(-c3ccc4oc(=O)n(C5CCOCC5)c4c3)ncnc21 [Compound 5-9, 5-(9-ethyl-8-(2-methylpyrimidin-5-yl)-9H-purin-6-yl)-3-(tetrahydro-2H-pyran-4-yl)benzo[d]oxazol-2(3H)-one] |
